Experimental data from patent publication US20250177362A1, “HETEROCYCLIC GLP-1 AGONISTS” (Gasherbrum Bio, Inc., priority 2022, published 2025).

Biological target: T1, GLP-1 Receptor (Homo sapiens, UniProt P43220)
T1 construct: host or cells: HEK293/CRE-Luc (HEK293/GLPIR/CRE-LUC)
Assay: GLP-1R agonist cAMP stimulation assay
Assay type: cell-based
Conditions: HEK293/CRE-Luc cell line stably expressing the GLP-1 Receptor; 30 min incubation; cAMP dynamic 2 Kit (Cisbio)
Protocol: Activation of GLP-1 receptor is known to stimulate cyclic AMP (cAMP) production in cells which indicates primary coupling to the Gas subunit of the G protein heterotrimeric complex.
To optimize functional activity directed toward Gas coupling, a HEK293/CRE-Luc cell line developed by HDB stably expressing the GLP-1 Receptor was used. 200× concentration of compound working solutions were prepared (Agilent Technologies Bravo) with ½ log serial dilution in 384-well Echo LDV plate (Labcyte, Cat #LP-0200). 50 nL/well 200× concentration of compound working solutions were moved to 384-well white low volume plate (Greiner, Cat #784075) using Labcyte ECHO550. 1×10^5 cells/mL HEK293/GLPIR/CRE-LUC (HD Biosciences) cell suspensions prepared with assay buffer [DPBS containing 0.5 mM IBMX (Sigma, Cat #15879) and 0.10% BSA (GENVIEW, Cat #FA016-100g)], 10 μL cell suspensions were added to each well of previous generated assay plate which already contains 50 nL compound at 200× concentration using ThermoFisher Multidrop Combi (1000 cells/well). Seal the plate and incubate at 37° C. with 5% CO2 for 30 min.
After incubation the cAMP assay signal was generated using cAMP dynamic 2 Kit (Cisbio). 5 μL cAMP-d2 working solution was added to each well, followed with 5 μL Anti-cAMP antibody-cryptate working solution added to each well using ThermoFisher Multidrop Combi. Incubate at room temperature for 1 hour protected from light. Read the fluorescence at 665 and 615 nm with Reader PerkinElmer EnVision.

T1 sequence (P43220 24-463, species assumed): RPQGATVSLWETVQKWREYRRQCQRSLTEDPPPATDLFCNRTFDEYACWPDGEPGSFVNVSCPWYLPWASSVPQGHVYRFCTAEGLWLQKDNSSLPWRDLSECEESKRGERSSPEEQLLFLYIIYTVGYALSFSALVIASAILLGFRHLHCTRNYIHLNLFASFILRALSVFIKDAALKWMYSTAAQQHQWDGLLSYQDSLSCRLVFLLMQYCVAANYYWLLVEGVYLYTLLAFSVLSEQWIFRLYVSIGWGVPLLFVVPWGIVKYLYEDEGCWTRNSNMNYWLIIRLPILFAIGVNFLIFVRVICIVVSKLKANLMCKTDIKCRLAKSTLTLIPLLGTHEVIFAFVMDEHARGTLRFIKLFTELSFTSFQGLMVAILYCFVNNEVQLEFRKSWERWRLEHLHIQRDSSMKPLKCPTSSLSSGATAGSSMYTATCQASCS

| EC50 | Compound |
| --- | --- |
| 0.001 to 0.1 µM | C[C@]1(c2ccc(Cl)cc2F)Oc2cccc(C3CCN(Cc4nnc(-c5nnc(C(F)(F)F)[nH]5)cc4N4CCC(O)C4)CC3)c2O1 (stereo partly drawn) [F-15, 1-(3-((4-((S)-2-(4-chloro-2-fluorophenyl)-2-methylbenzo[d][1,3]dioxol-4-yl)piperidin-1-yl)methyl)-6-(5-(trifluoromethyl)-4H-1,2,4-triazol-3-yl)pyridazin-4-yl)pyrrolidin-3-ol] |
| 0.001 to 0.1 µM | C[C@]1(c2ccc(Cl)cc2F)Oc2cccc(C3CCN(Cc4ncc(-c5nnc(C(F)(F)F)[nH]5)cc4CS(=O)(=O)C4CC4)CC3)c2O1 [F-16] |
| 0.001 to 0.1 µM | CC1CN(c2cc(-c3nnc(C(F)(F)F)[nH]3)nnc2CN2CCC(c3cccc4c3O[C@@](C)(c3ccc(Cl)cc3F)O4)CC2)CCO1 (stereo partly drawn) [F-17, 4-(3-((4-((S)-2-(4-chloro-2-fluorophenyl)-2-methylbenzo[d][1,3]dioxol-4-yl)piperidin-1-yl)methyl)-6-(5-(trifluoromethyl)-4H-1,2,4-triazol-3-yl)pyridazin-4-yl)-2-methylmorpholine] |
| 0.001 to 0.1 µM | CC1(C#N)CN(c2cc(-c3nnc(C(F)(F)F)[nH]3)cnc2CN2CCC(c3cccc4c3O[C@@](C)(c3ccc(Cl)cc3F)O4)CC2)C1 [F-18, (S)-1-(2-((4-(2-(4-chloro-2-fluorophenyl)-2-methylbenzo[d][1,3]dioxol-4-yl)piperidin-1-yl)methyl)-5-(5-(trifluoromethyl)-4H-1,2,4-triazol-3-yl)pyridin-3-yl)-3-methylazetidine-3-carbonitrile] |
| > 0.1 µM | C[C@]1(c2ccc(Cl)cc2F)Oc2cccc(C3CCN(Cc4ncc(-c5nnc(C(F)(F)F)[nH]5)cc4C4COC4)CC3)c2O1 [F-19] |
| > 0.1 µM | COc1cc(-c2nnn[nH]2)cnc1CN1CCC(c2cccc3c2OC(C)(c2ccc(Cl)cc2F)O3)CC1 (stereo not drawn) [F-20, 2-((4-(2-(4-chloro-2-fluorophenyl)-2-methylbenzo[d][1,3]dioxol-4-yl)piperidin-1-yl)methyl)-3-methoxy-5-(1H-tetrazol-5-yl)pyridine] |
